Measured values taken from patent publication US4616025A, “Thiazolidine derivatives, process for the preparation and pharmaceutical compositions thereof” (Richter Gedeon Vegyeszeti Gyar RT, priority 1983, dated 1986).
“Also recorded” adds a separate entry of the source.

Legend:
[1] = system: indomethacin-induced intestinal ulceration; experiment: Indomethacin-induced fatal intestinal ulceration (15 mg/kg p.o.), inflation technique; type: in vivo, rat (female H-Wistar)
Method: Indomethacin-induced intestinal ulceration
Of the non-steroidal antiinflammatory agents indomethacin has not only a gastric-ulcer inducing side-effect but may also cause serious intestinal ulceration. Depending on the dose, the intestinal ulceration may be fatal, peritonitis due to intestinal perforations kills the animals.
(a) Indomethacin-induced fatal intestinal ulceration
Non-fasted, female H-Winstar rats, weighing 120-150 g each were treated orally with a 15 mg/kg dose of indomethacin (in Tween 80 suspension). […] Under these conditions it requires about 48 to 72 hours to detect intenstinal ulceration.
(§1) To evaluate the development of intestinal ulcers the so-called inflation technique by Ezer and Szporny (J. Pharm. Pharmacol. 27, 866 (1975)) was employed. By this method the progress of ulceration can be monitored quantitatively. The tensile strength of the intestinal wall expressed in mmHg weakens gradually parallel with the progress of ulceration.

[2] = system: indomethacin-induced non-fatal intestinal ulceration; experiment: Indomethacin-induced (7.5 mg/kg p.o.) non-fatal intestinal ulceration, post-treatment, inflation technique; type: in vivo, rat (H-Wistar); conditions: for Non-fatal intestinal ulceration post-treatment, in words: post-treatment 4, 24 and 48 hours after indomethacin 7.5 mg/kg p.o.
Method: as §1
(b) Indomethacin-induced non-fatal ulceration
Non-fasted H-Wistar rats weighing 120 to 150 g each were administered 7.5 mg/kg indomethacin orally, to induce non-fatal intestinal ulceration. 4, 24 and 48 hours, respectively, after the indomethacin treatment the animals were treated with the test material orally. The animals were killed 24 hours after the last treatment and 72 hours after the ulcer-induction performed with indomethacin, respectively. Ulceration was evaluated by the inflation technique.

[3] = system: gastric necrosis induced by absolute alcohol; experiment: Gastric necrosis induced by absolute alcohol (cytoprotection); type: in vivo, rat (female H-Wistar)
Method: Gastric necrosis induced by absolute alcohol
Water was allowed ad libitum. The compounds to be tested were administered orally, 30 minutes prior to the administration of 0.5 ml of ethanol/100 g of body weight through a canula. Two hours later the animals were killed by overdosing ether. Stomachs were removed and opened along the major curvature. […] Degree of the cytoprotection was expressed in % related to the control.

[4] = system: intestinal ulceration induced by indomethacin; conditions: literature; cited from earlier work
[5] = system: ulceration; conditions: rheumatic patients simultaneously suffering from ulceration; cited from earlier work
[6] = system: gastric acid secretion; experiment: Gastric acid secretion in Shay-rats (pylorus ligation, 4 hours); type: in vivo, rat (female H-Wistar)
Method: The method was first described by Shay et al in 1945 (Gastroenterology 56, 5-13, 1945). Female H-Wistar rats (120-150 g) were gasted for 24 hours. Water was allowed ad libitum. The pylorus of the animals was ligated in slight ether narcosis. […] 4 hours after treatment the animals were killed by an overdose of ether. The stomach was excised and cut along the large curvature. The volume and the pH of the contents were determined, in certain cases the HCl production was determined by titration.

[7] = system: aspirin-induced gastric ulcers; experiment: Aspirin-induced stomach ulcer; type: in vivo, rat (female H-Wistar)
Method: It is known that the non-steroidal antiinflammatory agents induce gastointestinal ulceration to certain extent (Drugs and Peptic Ulcer, Ed. Pfeiffer, CRC Press, New York 1982). To test anti-ulcer compounds the so-called Aspirin-induced ulcer model is widely used. Female H-Wistar rats weighing 120-150 g each were fasted for 24 hours. Water was allowed ad libitum. The stomach ulcer was induced by oral administration of 100 mg/kg Aspirin (in Tween 80 suspension). The test drug was given simultaneously with the administration of Aspirin, orally. The animals were killed by an overdose of ether, 4 hours after treatment. The stomach was excised and cut along the large curvature. The contents were slightly washed and the haemorrhagic lesions in the glandular surface were counted. When evaluating the test results, the number of ulcers per stomach or the ulcer-free animals were determined.

[8] = Toxicological studies
Method: For intravenous administration the compound was dissolved in dimethyl formamide.

[9] = system: gastric ulcers induced by indomethacin; experiment: Gastric ulcers induced by a 20 mg/kg oral dose of indomethacin; type: in vivo; conditions: 20 mg/kg oral dose of indomethacin
[10] = system: ulcer; experiment: Anti-ulcer activity in general (pharmacological tests); type: in vivo; conditions: compared with cimetidine
Source text: The pharmacological activity of the new compounds has been investigated by the following methods: […]

[11] = Solubility in water
[12] = indomethacin 15 + 150 mg/kg p.o.
[13] = 7.5 + 3 × 50 mg/kg p.o., 4, 24, 48 hours after indomethacin
[14] = 10 mg/kg i.p., 15 min. prior to operation, n=5
[15] = 10 mg/kg s.c., 15 min prior to operation, n=5
[16] = 10 mg/kg, 15 min prior to operation, n=5
[17] = Aspirin 100 + 1.5 mg/kg p.o., n=10
[18] = Aspirin 100 + 3.0 mg/kg p.o., n=17
[19] = Aspirin 100 + 6.0 mg/kg p.o., n=17
[20] = Aspirin 100 + 12.0 mg/kg p.o., n=14
[21] = Aspirin 100 + 25.0 mg/kg p.o., n=17
[22] = indomethacin 15 + 15 mg/kg p.o.
[23] = indomethacin 15 + 25 mg/kg p.o.
[24] = indomethacin 15 + 50 mg/kg p.o.

## CN/C(=N/CCSCc1nc[nH]c1C)NC#N [Cimetidine, N-cyano-N'-methyl-N"-2-[(5-methyl-imidazole-4-yl)-methylthio]-ethyl-guanidine, reference compound]
[1]; [12]
  Intestinal wall resistency in % of normal: 21 % of normal
  T.s. of intestinal wall 72 hours after treatment: 47 ± 25 mm Hg
[2]; [13]
  T.s. of intestinal wall 72 hours after indomethacin treatment: 184 ± 7 mm Hg
[2]; 7.5 + 3 × 100 mg/kg p.o., 4, 24, 48 hours after indomethacin
  T.s. of intestinal wall 72 hours after indomethacin treatment: 197 ± 10 mm Hg
[2]
  Non-fatal intestinal ulceration post-treatment, in words: ineffective
[3]; 6.0 mg/kg p.o.
  Cytoprotection: 44%
  Length of average lesion: 46.0 ± 10 mm/stomach
[3]; 12.0 mg/kg p.o.
  Cytoprotection: 24%
  Length of average lesion: 63.0 ± 18 mm/stomach
[3]; 25.0 mg/kg p.o.
  Cytoprotection: 33%
  Length of average lesion: 55.0 ± 12 mm/stomach
[3]; 50.0 mg/kg p.o.
  Cytoprotection: 59%
  Length of average lesion: 34.0 ± 10 mm/stomach
[3]; 100.0 mg/kg p.o.
  Cytoprotection: 43%
  Length of average lesion: 47.0 ± 16 mm/stomach
[4]
  Indomethacin-induced intestinal ulceration, in words: cannot inhibit intestinal ulceration induced by indomethacin
[5]
  Outcome of simultaneous administration of cimetidine and indomethacin: perforation in rheumatic patients

## N#CN=C1SCCN1Cc1ccccc1 [Compound A, 3-Benzyl-2-cyanimino-thiazolidine]
[6]; 1.25 mg/kg i.p., n=5
  Acid secretion: 436 μmol HCl/100 g b.w.
[6]; 2.5 mg/kg i.p., n=10
  Acid secretion: 358 μmol HCl/100 g b.w.
  Inhibition of acid secretion: 17%
[6]; 5.0 mg/kg i.p., n=10
  Acid secretion: 301 μmol HCl/100 g b.w.
  Inhibition of acid secretion: 30%
[6]; [14]
  Gastric acid secretion (volume): 2.5 ml/100 g, b.w.
  Gastric acid secretion, pH: 3.7
  Gastric acid secretion, vol. inhibition: 42%
[6]; 10.0 mg/kg i.p., n=20
  Inhibition of acid secretion: 100%
[6]; [15]
  Gastric acid secretion (volume): 2.8 ml/100 g, b.w.
  Gastric acid secretion, pH: 1.5
  Gastric acid secretion, vol. inhibition: 35%
[6]; [16]
  Gastric acid secretion (volume): 2.3 ml/100 g, b.w.
  Gastric acid secretion, pH: 4.1
  Gastric acid secretion, vol. inhibition: 47%
[6]; 25.0 mg/kg i.p., n=5
  Inhibition of acid secretion: 100%
[6]; Rattus norvegicus, ip, 4 h, i.p., Shay rats, read-out: ED50, gastric acid secretion inhibition
  ED50: 5.3 mg/kg
[6]; Table 1, i.p.
  Gastric acid secretion decreasing effect, in words: dose-dependent gastric acid secretion decreasing effect
[6]; administered orally
  Gastric acid secretion inhibition on oral administration, in words: effectively inhibits the gastric acid secretion also when administered orally
[6]; comparison of i.p., s.c. and p.o. data
  Oral absorption: good oral absorption
[7]; [17]
  Number of ulcers/stomach: 9.5
  Ulcer inhibition: 40%
  Ulcer-free animals: 0%
[7]; [18]
  Number of ulcers/stomach: 6.8
  Ulcer inhibition: 57%
  Ulcer-free animals: 23%
[7]; [19]
  Number of ulcers/stomach: 4.7
  Ulcer inhibition: 71%
  Ulcer-free animals: 29%
[7]; [20]
  Number of ulcers/stomach: 2.2
  Ulcer inhibition: 86%
  Ulcer-free animals: 66%
[7]; [21]
  Number of ulcers/stomach: 2.3
  Ulcer inhibition: 85%
  Ulcer-free animals: 41%
[7]; Rattus norvegicus, po, 4 h, simultaneous administration
  ED50: 2.1 mg/kg
[7]; simultaneous administration, depending on the dose
  Aspirin-induced gastric ulceration, in words: inhibits the formation of the aspirin-induced gastric ulceration
[1]; Rattus norvegicus, po, simultaneous with indomethacin 15 mg/kg, read-out: ED100
  ED100: 50 mg/kg
[1]; [22]
  Intestinal wall resistency in % of normal: 52 % of normal
  T.s. of intestinal wall 72 hours after treatment: 120 ± 20 mm Hg
[1]; [23]
  Intestinal wall resistency in % of normal: 83 % of normal
  T.s. of intestinal wall 72 hours after treatment: 192 ± 18 mm Hg
[1]; [24]
  Intestinal wall resistency in % of normal: 97 % of normal
  T.s. of intestinal wall 72 hours after treatment: 225 ± 6 mm Hg
[1]; simultaneous administration, indomethacin 15 mg/kg p.o.
  Indomethacin-induced intestinal ulceration, in words: dose-dependent inhibiting effect; also recorded: inhibits the indomethacin-induced intestinal ulceration
[2]; 7.5 + 3 × 25 mg/kg p.o., 4, 24, 48 hours after indomethacin
  T.s. of intestinal wall 72 hours after indomethacin treatment: 176 ± 20 mm Hg
[2]; [13]
  T.s. of intestinal wall 72 hours after indomethacin treatment: 249 ± 4 mm Hg
[2]
  Non-fatal intestinal ulceration post-treatment, in words: can normalize the tensile strength of the intestine wall
[3]; 1.5 mg/kg p.o.
  Cytoprotection: 37%
  Length of average lesion: 52.5 ± 19 mm/stomach
[3]; 3.0 mg/kg p.o.
  Cytoprotection: 58%
  Length of average lesion: 34.8 ± 10 mm/stomach
[3]; 6.0 mg/kg p.o.
  Cytoprotection: 64%
  Length of average lesion: 29.9 ± 9 mm/stomach
[3]; 12.0 mg/kg p.o.
  Cytoprotection: 60%
  Length of average lesion: 32.9 ± 5 mm/stomach
[3]; 25.0 mg/kg p.o.
  Cytoprotection: 78%
  Length of average lesion: 18.0 ± 8 mm/stomach
[3]; Rattus norvegicus, po, 30 minutes prior to ethanol
  ED50: 2.8 mg/kg
[3]; rat, in vivo
  Absolute alcohol-induced gastric necrosis, in words: effective against the gastric necrosis induced by absolute alochol; also recorded: effective also in the absolute alcohol necrosis test
[8]; 100 mg/kg, route not given, within 3 days
  Sickness / death: sickness of the test animals but no death occurs
[8]; 250 mg/kg, within 2 weeks
  Death: no death is observed
[8]; 1500 mg/kg i.p.
  Time to death of the animals: ≤ 30 min
[8]; 1500 mg/kg oral
  Behavior and food consumption of animals: normal
[8]; 1500 mg/kg oral, in the next week
  Further deaths: no further deaths are observed
[8]; 1500 mg/kg oral, within 24 hours
  Death of animals within 24 hours: 3 animals out of 10
[8]; first toxicological studies
  Therapeutic index: high therapeutic index
[9]
  Indomethacin-induced gastric ulcers, in words: effectively inhibited
[10]
  Spectrum of activity, in words: wider spectrum of activity than for example cimetidine
[11]
  Solubility in water: insoluble in water
